This note sets out measurements from ChEMBL document CHEMBL1158776, “Pseudoguanolide sesquiterpene lactones from Vernoniopsis caudata and their in vitro antiplasmodial activities” (J Nat Prod, 2005).

In assay [1] the test system is Plasmodium falciparum. Briefly: Antiplasmodial activity against chloroquine-resistant Plasmodium falciparum FCB1 in human blood as [G-3H]hypoxanthine uptake. It counts as functional, organism-based.
Assay [2] deals with KB. Briefly: Cytotoxicity against human KB cells after 72 hrs. It is filed as functional, cell-based.

Structures are written as SMILES.

The term IC50 denotes the midpoint of a concentration-inhibition curve. A higher IC50 goes with a need for much substance. Consider `C=C1C(=O)O[C@@H]2C[C@@H](C)[C@@H]3C=CC(=O)[C@@]3(C)[C@@H](OC(=O)C(=C)[C@@H](C)O)[C@H]12`, for which the values for the half-maximal inhibitory concentration (IC50) in assay [1] and in assay [2] were 1000 nM and 330 nM, respectively.
`COc1cccc2c1C(=O)c1c(O)c3c(c(O)c1C2=O)C[C@@](O)(C(=O)CO)C[C@@H]3O[C@H]1C[C@H](N)[C@H](O)[C@H](C)O1` [DOXORUBICIN] yielded a 50% inhibitory concentration (IC50) in assay [2] of 270 nM.
For the molecule `C=C1C(=O)O[C@@H]2C[C@@H](C)[C@@H]3C=CC(=O)[C@@]3(C)[C@@H](OC(=O)/C(=C\C)CO)[C@H]12`, the IC50 was found to be 190 nM in assay [1] and 930 nM in assay [2].
In the case of `C=C(C(=O)O[C@H]1[C@H]2[C@@H](C[C@@H](C)[C@@H]3C=CC(=O)[C@]31C)OC(=O)[C@@H]2C)[C@@H](C)O`, the half-inhibitory concentration (IC50) turned out to be 410 nM in assay [1] and 50 nM in assay [2].
